Measurements reported in patent US20120165319A1, “INHIBITORS OF INTERLEUKIN-1 BETA CONVERTING ENZYME” (VERTEX PHARMACEUTICALS INCORPORATED, priority 1995, published 2012).
Read-outs that look alike come from different tables or passages of the source.

Columns and labels:
ICE = biological target: T1, ICE (Homo sapiens, UniProt P29466); test: Enzyme assay with UV-visible substrate (visible ICE assay, Succinyl-Tyr-Val-Ala-Asp-pNitroanilide); type: biochemical
T1 sequence (P29466 120-297 limits assumed): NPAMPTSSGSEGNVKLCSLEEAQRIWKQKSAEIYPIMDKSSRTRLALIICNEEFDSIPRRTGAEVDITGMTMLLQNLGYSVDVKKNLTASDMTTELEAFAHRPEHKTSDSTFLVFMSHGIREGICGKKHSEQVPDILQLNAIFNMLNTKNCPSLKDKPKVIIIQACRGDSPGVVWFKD
T1 sequence (P29466 317-404 limits assumed): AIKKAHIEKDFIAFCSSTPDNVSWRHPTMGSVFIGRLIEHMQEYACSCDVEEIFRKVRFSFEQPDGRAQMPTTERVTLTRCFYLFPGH
Summary of the method: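 Buffer, ICE and inhibitor in DMSO are combined and held 15 min at room temperature. Succinyl-Tyr-Val-Ala-Asp-pNA is then added and absorbance at 405-603 nm tracked for 20 min at 37° C.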

IL-1β, human whole blood = test: Whole blood assay for IL-1β production; type: cell-based; details: Table 17, read-out: Whole human blood IC50
Summary of the method: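 Human whole blood collected on Na2EDTA was treated with serially diluted compound in saline and then stimulated with LPS at 5.0 ng/ml final, for 16-18 h at 30 °C, in duplicate or triplicate. Plasma IL-1β was measured by ELISA at 1:200 dilution.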

[1] = test system: IL-1β production, LPS-challenged mice; test: In vivo acute assay for efficacy as anti-inflammatory agent: LPS-induced IL-1β production in mice; parameters: species or system mouse; details: LPS challenged mice, compound PO, 50 mg/kg; for inhibition at 50 mg/kg: Mus musculus, po, read-out: percent inhibition of IL-1β production
Description: In Vivo Acute Assay for Efficacy as Anti-Inflammatory Agent
LPS-Induced IL-1β Production.
Efficacy of 214e and 217e was evaluated in CD1 mice (n=6 per condition) challenged with LPS (20 mg/kg IP). […] Blood was collected seven hours after LPS challenge. Serum IL-1β levels were measure by ELISA. […] Similar results were obtained in a second experiment. […] However, a clear dose response was not apparent.
Compounds 214e and 217e (50 mg/kg) were also administered by oral gavage to assess absorption.
The efficacy of analogs of 214e were also evaluated in LPS challenged mice after IP administration (FIG. 9) and PO administration (FIG. 10).
[…] The protocol is described in Example 7.

[2] = test system: IL-1β, human peripheral blood mononuclear cells (PBMC); test: PBMC cell assay: IL-1β assay with human PBMC or enriched adherent mononuclear cells, LPS-stimulated; type: cell-based
Summary of the method: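 Buffy-coat human PBMC at 6×10^6 cells/ml, or adherent monocytes enriched by 1 h adherence (2.5−3.0×10^5 cells/well), are given 5–6 compound dilutions bracketing the ICE Ki (final DMSO 0.1%) plus LPS at a final 5 ng/ml. They are incubated 16–18 hr at 37 °C, 5% CO2, and supernatant mature IL-1β is measured by ELISA, with duplicate cultures and duplicate ELISAs.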

[3] = In vivo rat clearance assay; details: for clearance: plasma, iv, 10-20 mg/kg
Description: In Vivo Rat Clearance Assay
Cannulations of the jugular and carotid vessels of rats under anesthesia were performed one day prior to the pharmacokinetic study. M. J. Free, R. A. Jaffee; ‘Cannulation techniques for the collection blood and other bodily fluids’; in: Animal Models; p. 480-495; N. J. Alexander, Ed.; Academic Press; (1978). Drug (10 mg/mL) was administered via the jugular vein in a vehicle usually consisting of: propylene glycol/saline, containing 100 mM sodium bicarbonate in a 1:1 ratio. Animals were dosed with 10-20 mg drug/kg and blood samples were drawn at 0, 2, 5, 7, 10, 15, 20, 30, 60, and 90 minutes from an indwelling carotid catheter. The blood was centrifuged to plasma and stored at −20° C. until analysis. Pharmacokinetic analysis of data was performed by non-linear regression using standard software such as RStrip (MicroMath Software, UT) and/or Pcnonlin (SCI Software, NC) to obtain clearance values.
Rat plasma was extracted with an equal volume of acetonitrile (containing 0.1% TFA). Samples were then centrifuged at approximately 1,000×g and the supernatant analyzed by gradient HPLC. A typical assay procedure is described below.
A standard curve was run at 20, 10, 5, 2 and 1 μg/mL concentrations.

[4] = 0 h, administered 0 h relative to time of LPS challenge
[5] = 2 h, administered −2 h relative to time of LPS challenge
[6] = administered 0 h relative to time of LPS challenge
[7] = administered −2 h relative to time of LPS challenge

Row | SMILES | IC50 (IL-1β, human whole blood; Homo sapiens) | inhibition at 50 mg/kg [1, 4] | inhibition at 50 mg/kg [1, 5] | IC50 (IL-1β, human whole blood) | percent inhibition of IL-1β production [1, 6] | percent inhibition of IL-1β production [1, 7] | other results
1 | CCOC(=O)CC(=COC(C)=O)NC(=O)[C@@H]1CCCN2C(=O)CC[C@H](NC(=O)c3ccccc3)C(=O)N12 [Compound 2100j, [3S(1S,9S)]3-(9-Benzoylamino-6,10-dioxo-1,2,3,4,7,8,9,10-octahydro-6H-pyridazino[1,2-a][1,2]diazepine-1-carboxamido)-4-acetoxy-3-butenoic acid ethyl ester] | 12 µM | 0% | 48% |  |  |  | Ki (ICE; Table 17): 30 µM; inhibition at 50 mg/kg ([1]; 1 h, administered +1 h relative to time of LPS challenge): 33%; inhibition at 50 mg/kg ([1]; 1 h, administered −1 h relative to time of LPS challenge): 41%
2 | CC(=O)Nc1cccc(C(=O)N[C@H]2CCC(=O)N3CCC[C@@H](C(=O)N[C@H]4CC(=O)OC4OCc4ccccc4)N3C2=O)c1 (mixture of isomers) [Compound 213o, [1S,9S(2RS,3S)]9-[(3-Acetamido)benzamido]-N-(2-benzyloxy-5-oxotetrahydrofuran-3-yl)-6,10-dioxo-1,2,3,4,7,8,9,10-octahydro-6H-pyridazino[1,2-a][1,2]diazepine-1-carboxamide] |  |  |  | 3.3 µM | 8% | 4% | IC50 ([2]; Table 17): 5 µM
3 | O=C[C@H](CC(=O)O)NC(=O)[C@@H]1CCCN2C(=O)CC[C@H](NS(=O)(=O)c3ccccc3)C(=O)N12 [Compound 427] |  |  |  |  |  |  | Ki (ICE; Table 5): 0.18 µM; clearance [3]: 36 mL/min/kg; IC50 ([2]; Homo sapiens, PBMC, * = values obtained upon reassay): 4.5 µM
4 | CS(=O)(=O)N[C@H]1CCC(=O)N2CCC[C@@H](C(=O)N[C@@H](CC(=O)O)C(=O)COc3cccnc3)N2C1=O [Compound 283b, [3S(1S,9S)]3-(6,10-Dioxo-9-methanesulphonamido-1,2,3,4,7,8,9,10-octahydro-6H-pyridazino[1,2-a][1,2]diazepine-1-carboxamido)-4-oxo-5(3-pyridyloxy)pentanoic acid] |  |  |  |  |  |  | Clearance Rat, i.v. ([3]; Table 17): 41 mL/min/kg; IC50 ([2]; Table 17): 1.75 µM
5 | COc1cccc2nc(C(=O)[C@H](CC(=O)O)NC(=O)CN3C(=O)[C@@H](NC(=O)CCc4ccccc4)CN(C(=O)CCc4ccccc4)c4ccccc43)oc12 [Compound 108b, 4-(7-Methoxybenzoxazol-2-yl)-4-oxo-3(S)-{2-[2-oxo-5-(3-phenylpropionyl)-3(S)-(3-phenylpropionylamino)-2,3,4,5-tetrahydrobenzo[b][1,4]diazepin-1-yl]-acetylamino}butyric acid] |  |  |  |  |  |  | clearance [3]: > 100 mL/min/kg
6 | CCOC1OC(=O)C[C@@H]1NC(=O)[C@@H]1CCCN2C(=O)CC[C@H](NC(=O)c3ccc(N(C)C)cc3)C(=O)N12 (stereo partly drawn) [Compound 550f, [1S,9S(2RS,3S)]9-[(4-Dimethylaminobenzoyl)amino]-6,10-dioxo-1,2,3,4,7,8,9,10-octahydro-N-(2-ethoxy-5-oxotetrahydrofuran-3-yl)-6H-pyridazino[1,2-a][1,2]diazepine-1-carboxamide] | 1.1 µM | 50% | 0% |  |  |  | 
7 | O=C1C[C@H](NC(=O)[C@@H]2CCCN3C(=O)CC[C@H](NC(=O)c4nccc5ccccc45)C(=O)N23)C(OCc2ccccc2)O1 (mixture of isomers) [Compound 213y, [1S,9S(2RS,3S)]N-(2-Benzyloxy-5-oxotetrahydrofuran-3-yl)-6,10-dioxo-9-(isoquinolin-1-oylamino)-1,2,3,4,7,8,9,10-octahydro-6-H-pyridazino[1,2-a][1,2]diazepine-1-carboxamide] |  |  |  | 0.93 µM | 50% | 29% | 
8 | O=C1C[C@H](NC(=O)[C@@H]2CCCN3C(=O)CCN(NC(=O)c4ccc5c(c4)OCO5)C(=O)N23)C(OCc2ccccc2)O1 (stereo partly drawn) [Compound 264l, [4S(2RS,3S)]N-(2-Benzyloxy-5-oxotetrahydrofuran-3-yl)-6,10-dioxo-7-(3,4-methylenedioxybenzoylamino)-1,2,3,4,7,8,9,10-octahydro-6H-pyridazino[1,2-a][1,2,4]triazepine-4-carboxamide] | 3 µM | 23% | 0% |  |  |  | 
9 | CCOC1OC(=O)C[C@@H]1NC(=O)[C@@H]1CCCN2C(=O)CC[C@H](NC(=O)c3ccc(NC(C)=O)c(Cl)c3)C(=O)N12 (stereo partly drawn) [Compound 550l, [1S,9S (2RS,3S)]9-[(3-Chloro-4-acetamidobenzoyl)amino]-6,10-dioxo-1,2,3,4,7,8,9,10-octahydro-N-(2-ethoxy-5-oxotetrahydrofuran-3-yl)-6H-pyridazino[1,2-a][1,2]diazepine-1-carboxamide] | 0.75 µM | 38% | 9% |  |  |  | 
10 | O=C1C[C@H](NC(=O)[C@@H]2CCCN3C(=O)CC[C@H](NC(=O)c4cc5ccccc5[nH]4)C(=O)N23)C(OCc2ccccc2)O1 (mixture of isomers) [Compound 213q, [1S,9S(2RS,3S)]N-(2-Benzyloxy-5-oxotetrahydrofuran-3-yl)-6,10-dioxo-9-(indol-2-oylamino)-1,2,3,4,7,8,9,10-octahydro-6H-pyridazino[1,2-a][1,2]diazepine-1-carboxamide] |  |  |  | < 0.3 µM | 91% | 17% | 
11 | CCOC1OC(=O)C[C@@H]1NC(=O)[C@@H]1CCCN2C(=O)CC[C@H](NC(=O)c3cc(Cl)c(O)c(Cl)c3)C(=O)N12 (stereo partly drawn) [Compound 550k, [1S,9S(2RS,3S)]9-[(3,5-Dichloro-4-hydroxybenzoyl)amino]-6,10-dioxo-1,2,3,4,7,8,9,10-octahydro-N-(2-ethoxy-5-oxotetrahydrofuran-3-yl)-6H-pyridazino[1,2-a][1,2]diazepine-1-carboxamide] | 3 µM | 34% | 36% |  |  |  | 
12 | CCOC1OC(=O)C[C@@H]1NC(=O)[C@@H]1CCCN2C(=O)CC[C@H](NC(=O)c3ccc(N)c(Cl)c3)C(=O)N12 (stereo partly drawn) [Compound 550h, [1S,9S(2RS,3S)]9-[(3-Chloro-4-aminobenzoyl)amino]-6,10-dioxo-1,2,3,4,7,8,9,10-octahydro-N-(2-ethoxy-5-oxotetrahydrofuran-3-yl)-6H-pyridazino[1,2-a][1,2]diazepine-1-carboxamide] | 1.8 µM | 73% | 55% |  |  |  | 
13 | Cc1ccccc1C(=O)N[C@H]1CCC(=O)N2CCC[C@@H](C(=O)N[C@H]3CC(=O)OC3OCc3ccccc3)N2C1=O (mixture of isomers) [Compound 213r, [1S,9S(2RS,3S)]N-(2-Benzyloxy-5-oxotetrahydrofuran-3-yl)-6,10-dioxo-1,2,3,4,7,8,9,10-octahydro-9-(2-toluoylamino)-6H-pyridazino[1,2-a][1,2]diazepine-1-carboxamide] |  |  |  | < 0.3 µM | 37% | 59% | 
